Absorption maximum data for 30 molecules are collected here from the Deep4Chem optical property database.

The nature of this data set: solvent given as SMILES.

Each structure is given as a SMILES string.

Where the note is “in ClCCl”, `CC(C)(C)c1ccc(-n2c(-c3ccc(N(c4ccc(-c5ccc(N(c6ccc(-c7nc8c9ccccc9c9ccccc9c8n7-c7ccc(C(C)(C)C)cc7)cc6)c6ccc(-c7nc8c9ccccc9c9ccccc9c8n7-c7ccc(C(C)(C)C)cc7)cc6)cc5)cc4)c4ccc(-c5nc6c7ccccc7c7ccccc7c6n5-c5ccc(C(C)(C)C)cc5)cc4)cc3)nc3c4ccccc4c4ccccc4c32)cc1` came in with an absorption maximum of 377 nm.

Take `C#CCn1c2ccccc2c2cc(/C=C/c3cc(C)c4n3[B-](F)(F)[N+]3=C(C)C=C(C)C3=C4c3ccc(I)cc3)ccc21`: the absorption maximum by setting is: (in CC#N) 579 nm; (in CS(C)=O) 589 nm; (in ClC(Cl)Cl) 588 nm.

As for `CCCCCC(CC)C1(C(CC)CCCCC)c2ccccc2-c2ccc(C#Cc3cc(C#Cc4ccc5c(c4)C(C(CC)CCCCC)(C(CC)CCCCC)c4ccccc4-5)c4ccc5c(C#Cc6ccc7c(c6)C(C(CC)CCCCC)(C(CC)CCCCC)c6ccccc6-7)cc(C#Cc6ccc7c(c6)C(C(CC)CCCCC)(C(CC)CCCCC)c6ccccc6-7)c6ccc3c4c65)cc21` (stereo not given), the absorption maximum reads like this: (in C1CCCCC1) 486 nm; (in C1CCOC1) 492 nm; (in CCOC(C)=O) 488 nm; (in CN(C)C=O) 496 nm; (in Cc1ccccc1) 488 nm; (in ClC(Cl)Cl) 491 nm. Further, the absorption maximum (in ClCCl) worked out at 492 nm.

In turn, `COC(=O)C[C@H](Cc1c[nH]c2ccccc12)NC(=O)[C@H](CC(=O)N[C@@H](CC1=CCc2ccccc21)C(=O)OC)NC(=O)[C@H](Cc1c[nH]c2ccccc12)NC(=O)OC(C)(C)C` had an absorption maximum (in CC#N) of 280 nm, an absorption maximum (in CCOC(C)=O) of 280 nm and an absorption maximum (in CO) of 280 nm.

On to `Oc1cc(-c2cccs2)ccc1-c1nc2ccccc2s1`, for which the absorption maximum (in ClCCl) is 364 nm.

In the case of `O=C(O)c1ccc2cc3cc(C(=O)O)ccc3cc2c1`, the absorption maximum is, setting by setting: (in C1CCOC1) 409 nm; (in CN(C)C=O) 409 nm.

In the case of `CC1=CC(C)=[N+]2C1=Cc1c3ccccc3c(C#Cc3cccs3)n1[B-]2(F)F`, the absorption maximum is, setting by setting: (in CCCCCC) 621 nm; (in CCCCCCCCO) 625 nm; (in CCOC(C)=O) 620 nm; (in CN(C)C=O) 626 nm; (in ClCCl) 618 nm.

Consider `COc1ccc2c(c1)CCc1c(-c3ccccc3)c3n(c1-2)[B-](F)(F)[N+]1=C2C(=C(c4ccccc4)C1=N3)CCc1ccccc12`, for which the absorption maximum (in ClC(Cl)Cl) was determined as 723 nm.

The molecule `Cc1cccc(C2=CC3=C(c4c(C)cc(C)cc4C)c4cc(-c5cccc(C)c5)c(-c5cccc(C)c5)n4[B-](F)(F)[N+]3=C2c2cccc(C)c2)c1` registered an absorption maximum (in C1CCCCC1) of 579 nm; an absorption maximum (in C1CCOC1) of 577 nm; an absorption maximum (in CC#N) of 559 nm; an absorption maximum (in Cc1ccccc1) of 571 nm; an absorption maximum (in ClCCl) of 573 nm.

Turning to `CC(C)(C)c1ccc2oc(-c3ccc(-c4nc5cc(C(C)(C)C)ccc5o4)s3)nc2c1`, the absorption maximum is, setting by setting: (in C1CCCCC1) 372 nm; (in C1CCOC1) 374 nm; (in CC1CCCCC1) 373 nm; (in CC#N) 371 nm; (in CCCCO) 375 nm; (in CCO) 373 nm. Moreover, the absorption maximum by setting is: (in CN(C)C=O) 374 nm; (in Cc1ccccc1) 376 nm; (in Clc1ccccc1Cl) 379 nm; (in c1ccccc1) 377 nm.

Turning to `C(=C\c1cccc2ccccc12)/c1ccc(Oc2ccc3ccccc3c2-c2c(Oc3ccc(/C=C/c4cccc5ccccc45)cc3)ccc3ccccc23)cc1`, the absorption maximum (in ClCCl) is given as 334 nm.

In turn, `CC1(C)CC[N+]2=c3c(cc4c(c31)Oc1cc3c(cc1C=4c1ccccc1C(=O)O)C(c1ccccc1C(=O)O)=c1cc4c5c(c1O3)C(C)(C)CC[N+]=5CCC4)CCC2` registered an absorption maximum (in ClC(Cl)Cl) of 611 nm.

Regarding `O=C(O)CCCCCn1/c(=C/C=C/C2=[N+](CCCCCC(=O)O)c3cccc4cccc2c34)c2cccc3cccc1c32`, the absorption maximum (in CO) was 760 nm.

`c1ccc(-c2nc(-c3ccc(N4c5ccccc5Sc5ccccc54)cc3)nn2-c2ccc(N3c4ccccc4Sc4ccccc43)cc2)nc1` came in with an absorption maximum (in ClCCl) of 377 nm.

On to `COc1ccc(C#Cc2c3ccccc3c(C#Cc3ccc(OC)cc3)c3cc4ccccc4cc23)cc1`, for which the absorption maximum (in ClCCl) is 559 nm.

On to `CCCCCc1ccc(-c2ccc(C#Cc3cc(C#Cc4ccc(-c5ccc(CCCCC)cc5)cc4)c4ccc5c(C(=O)c6ccccc6)cc(C#Cc6ccc(-c7ccc(CCCCC)cc7)cc6)c6ccc3c4c65)cc2)cc1`, for which, where the note is “in ClCCl”, the absorption maximum was determined as 466 nm.

With `COc1ccc(-n2c(-c3ccc(-c4cncc5ccccc45)cc3)nc3c4ccccc4c4ccccc4c32)cc1`, the absorption maximum (in C1CCOC1) turned out to be 365 nm.

In the case of `N#Cc1ccccc1N1c2ccccc2C(c2ccccc2)(c2ccccc2)c2ccccc21`, the absorption maximum (in Cc1ccccc1) came out at 356 nm.

Molecule `COC(=O)c1ccc(/C=C2\C=C(c3ccccc3)NC2=O)cc1` came in with an absorption maximum (in C1COCCO1) of 437 nm.

Molecule `N#Cc1c2oc3ccccc3oc2c(C#N)c2oc3ccccc3oc12` came in with an absorption maximum (in ClC(Cl)Cl) of 430 nm.

Molecule `c1ccc(-c2ccc3c4ccc(-c5ccccc5)c5c(-c6ccccc6)ccc(c6ccc(-c7ccccc7)c2c36)c54)cc1` gave an absorption maximum (in ClCCl) of 486 nm.

Take `COc1ccc2ccc(O)cc2c1`: for the setting “in O”, the absorption maximum turned out to be 325 nm.

`c1ccc2c(-c3nc4sc5ccccc5c4s3)cccc2c1` registered an absorption maximum (in CS(C)=O) of 350 nm.

As to `Cc1cc(C)c(-c2cc(-c3c(C)cc(C)cc3C)c3ccc4c(-c5c(C)cc(C)cc5C)cc(-c5c(C)cc(C)cc5C)c5ccc2c3c54)c(C)c1`, the absorption maximum (in ClCCl) is given as 363 nm.

For the setting “in ClC(Cl)Cl”, `Cc1ccc(/C2=c3\cc/c(o3)=C(\c3ccc(C)cc3)c3ccc([nH]3)-c3ccc4n3[B-](F)(F)[N+]3=C(C=CC3=C4c3ccco3)c3ccc2[nH]3)cc1` displayed an absorption maximum of 722 nm.

As to `CN1/C(=C/C=C(/C=C/C2=[N+](C)c3ccccc3C2(C)C)c2ccccc2)C(C)(C)c2ccccc21`, the absorption maximum is, setting by setting: (in CCO) 640 nm; (in CO) 637 nm; (in CS(C)=O) 645 nm; (in O) 634 nm.

Consider `COc1ccc(C(=O)/C=C2\C(=O)Nc3ccccc32)cc1`, for which the absorption maximum reads like this: (in C1COCCO1) 337 nm; (in CC#N) 335 nm; (in CC(C)(C)O) 345 nm; (in CC(C)O) 345 nm; (in CCCCO) 345 nm; (in CCOC(C)=O) 339 nm. Also, the absorption maximum is reported as 344 nm (in CN(C)C=O), 343 nm (in CO), 339 nm (in ClCCl) and 347 nm (in O).

Molecule `BrCCCCCCCCCCCCOc1cc2ccc3cccc4ccc(c1)c2c34` displayed an absorption maximum (in Cc1ccccc1) of 384 nm.

Molecule `[O-][n+]1c(-c2ccc(Br)cc2)cc(N2CCOCC2)nc1/C=C/c1ccccc1` registered an absorption maximum (in ClCCl) of 445 nm.

In the case of `CCCCc1cc(-c2cccc(COC)c2)oc1-c1cccc(-c2cc(CCCC)c(-c3cccc(-c4cc(CCCC)c(-c5cccc(-c6oc(-c7cccc(-c8oc(-c9cccc(-c%10oc(-c%11cccc(COC)c%11)cc%10CCCC)c9)cc8CCCC)c7)cc6CCCC)c5)o4)c3)o2)c1`, the absorption maximum (in ClC(Cl)Cl) is recorded as 337 nm.
